Measured values reported in patent US5430058A, “Pharmaceutical compositions comprising hydroxamate derivatives for iron removal” (Yeda Research and Development Co. Ltd., priority 1993, dated 1995).

How the values were obtained:
[1] = tested on: plasma; test: Pre-incubation of plasma with chelator, effect on parasite growth; assay type: cell-based, human; conditions: 40 fold IC50, then dialysis
Procedure: h. The effect of pre-incubation of red cells or plasma with drug on parasite growth. Red cell suspensions (5% hematocrit) in RPMI 1640 medium pH 7.4 (no plasma) were treated for 24-48 hrs with either 100 μg/ml of chelator or DMSO alone (<1% final concentration) in culture conditions. Chelator was removed by washing the cells 4 times with RPMI followed by 1 hour incubation at 37° C. Parasite growth was assayed after addition of gelatin enriched schizonts (>90%) as described above. […] The plasma was subsequently dialyzed for 24 hours against 800 ml 0.1% bovine serum albumin (BSA), and 10 mM glucose in phosphate buffered saline (PBS) pH 7.4, followed by an additional 24 hour dialysis against 400 ml of the same buffer and supplemented to the medium for parasite growth assays.
Plasma and uninfected red cells were separately treated with relatively high concentrations of chelators (100 μg/ml) in order to evaluate whether the site of action of the lipophilic chelators was associated with components of the plasma and/or the uninfected red cell.

[2] = tested on: human Hep2 hepatoma cells; test: Iron extraction from hepatoma cells (NBD-DFO fluorescence); assay type: cell-based; conditions: cells pre-exposed to chelator (80 μg/ml, 18 hour)
[3] = tested on: normal red cells; test: Extraction of chelatable iron, normal red cells (NRC); assay type: cell-based, human; conditions: Experiment 1, NRC, 12 μM, 2 hours at 37° C (untreated <0.1)
Procedure: (§1) l. Extraction of chelatable iron. Trophozoite stage parasites were obtained from step gradient of Percoll-3% L-alanine in phosphate buffered saline (10 mM Na-phosphate, 150 mM NaCl, pH 7.4). Cell suspensions of 100% parasitemia were adjusted to 1% hematocrit and placed in RPMI growth medium supplemented with 50 mM sucrose and 20 mM glucose. Pretreatment of cells was done with 12 μM of the indicated SF derivative or DMSO for 2 hours at 37° C. at which time the cells were washed twice in 500× volume of buffer containing 150 mM NaCl, 10 mM HEPES and 50 mM sucrose pH=7.4 Next the cells were incubated for additional 3 hours in 6.8 μM NBD-DFO and washed to remove fluorescent probe. Measurements of chelatable iron were carried out in the TCA soluble fraction of freeze thaw lysates as described by Lytton, S. D. et al., 1991 Mol. Pharmacol. 40:584-590.
(§2) Iron extractions were performed on cell suspensions treated (yes) or untreated (no) with 12 μM RSF n2-ileu for 2 hours at 37° C. Fluorescence assays of chelatable iron in non-infected (NRC) and in parasitized (IRC) red cells were carried out as described by Lytton et al., (1991) Mol. Pharmacol. 40:584.

[4] = tested on: infected red cells; test: Extraction of chelatable iron, infected red cells (IRC); assay type: cell-based, human erythrocytes infected with P. falciparum; conditions: 12 μM
Procedure: as §1, §2

[5] = tested on: ferritin; test: Effect on iron in ferritin; design: species or system horse; conditions: after the same time of exposure
Procedure: Experimental testing of iron(III)-chelation properties RSF's were performed on human red blood cell lysates (normal and malaria parasitized), intact cells (4 hrs incubation times at 37° C.), free horse spleen ferritin (4-10 hrs at 37° C.) and ferritin-containing HEP-2 (human hepatoma) cells (4-10 hrs at 37° C.) using RSF1-ileu.

[6] = tested on: normal and infected red cells; test: Distribution of 59Fe counts after uptake (80,000g lysate fractionation); assay type: cell-based, human; conditions: 59Fe complex, lysates 80,000g×20 min
Procedure: k. Uptake of radioactive carrier-Fe complexes. DFO and the different SF derivatives were pre-complexed with iron by addition of concentrated stock solutions of 20 mg/ml carriers to ^59 FeCl3 (Amersham, England) in 0.5 ml of 150 mM NaCl, 10 mM Hepes at 3-5 molar excess of carrier for 1 hour at room temperature. To begin the flux, normal or parasitized red cells that had been washed 3 times in saline buffer and resuspended in the same buffer supplemented with 5% bovine serum albumin (BSA), 2.5 mM citrate, 2 mg/ml glucose were added to radioactive ^59 Fe-complexes at a final suspension of 20% hematocrit. After incubation at 37° C., 75 μl suspension was removed in duplicate aliquots for each time point, placed in plastic 15 ml test tube (Starstedt) and centrifuged 1 minute at 2,500 g. The supernatant was removed and the pellet immediately placed on ice. After all sampling was completed the pellets were washed twice in 15 ml of ice cold buffer containing 50 mM EDTA and lysed in distilled water. Radioactivity (Gamma emission, 700-1300 Kev) was counted and the cell number for each sample determined from hemoglobin absorption of the lysate at 410 nm.
Due to the fact that RSF's have markedly greater lipophilicity than DFO, they were expected to faster penetrate and therefore more effectively chelate intracellular iron after short exposure times. […]

[7] = tested on: red cells; test: Penetration of chelator into red cells; assay type: cell-based, human
[8] = amino acid side chain, Tanford/Segret's scale as given by Eisenberg 1984; cited from earlier work

## CC[C@H](C)[C@H](NC(=O)CCOCC(CC)(COCCC(=O)N[C@H](C(=O)N(C)O)[C@@H](C)CC)COCCC(=O)N[C@H](C(=O)N(C)O)[C@@H](C)CC)C(=O)N(C)O [SF1-ileu]
[1]
  Ability of plasma to support parasite growth after pre-treatment: no significant effect
[2]
  Chelatable cytosolic iron: demonstrably reduced
[3]
  Chelatable iron after RSF pretreatment: 0.7 nmoles/10^10 cells
[4]; Experiment 1, IRC, 2 hours at 37° C (untreated 4.6)
  Chelatable iron after RSF pretreatment: 0.9 nmoles/10^10 cells
[4]; Experiment 2, IRC, 2 hours at 37° C (untreated 2.9)
  Chelatable iron after RSF pretreatment: 0.3 nmoles/10^10 cells
[4]; pretreatment of trophozoites, 2 hours
  Reduction of chelatable iron: 5-10 fold
[5]
  Effect on iron in ferritin: not substantially affecting iron in ferritin
[6]
  Total counts found in the cytosol fraction: More than 90%
[7]
  Penetration into red cells: can easily penetrate into red cells
[8]
  Hydrophobicity: 5.0
